Results taken from PubChem BioAssay (NCI).
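Where inhibition never reached the appropriate level, the endpoint shown equals the highest concentration tested. Otherwise, values were interpolated linearly from a five-concentration, 48-hour dose response in 96-well plates. TGI: total growth inhibition.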

Tests used:
Experiment in all cases: NCI tumour cell line growth inhibition, 48 h
786-0 renal = test system: 786-0 renal
A498 renal = test system: A498 renal
A549 NSCLC = test system: A549 NSCLC
ACHN renal = test system: ACHN renal
BT-549 breast = test system: BT-549 breast
CAKI-1 renal = test system: CAKI-1 renal
CCRF-CEM leukemia = test system: CCRF-CEM leukemia
COLO 205 colon = test system: COLO 205 colon
DU-145 prostate = test system: DU-145 prostate
EKVX NSCLC = test system: EKVX NSCLC
HCC-2998 colon = test system: HCC-2998 colon
HCT-116 colon = test system: HCT-116 colon
HCT-15 colon = test system: HCT-15 colon
HL-60(TB) leukemia = test system: HL-60(TB) leukemia
HOP-62 NSCLC = test system: HOP-62 NSCLC
HS 578T breast = test system: HS 578T breast
HT29 colon = test system: HT29 colon
IGROV1 ovarian = test system: IGROV1 ovarian
K-562 leukemia = test system: K-562 leukemia
KM12 colon = test system: KM12 colon
LOX IMVI melanoma = test system: LOX IMVI melanoma
M14 melanoma = test system: M14 melanoma
MALME-3M melanoma = test system: MALME-3M melanoma
MCF7 breast = test system: MCF7 breast
MDA-MB-231 breast = test system: MDA-MB-231 breast
MDA-MB-435 = test system: MDA-MB-435
MDA-N = test system: MDA-N
MOLT-4 leukemia = test system: MOLT-4 leukemia
NCI-H226 lung = test system: NCI-H226 lung
NCI-H23 lung = test system: NCI-H23 lung
NCI-H460 lung = test system: NCI-H460 lung
NCI-H522 lung = test system: NCI-H522 lung
NCI/ADR-RES ovarian = test system: NCI/ADR-RES ovarian
OVCAR-3 ovarian = test system: OVCAR-3 ovarian
OVCAR-4 ovarian = test system: OVCAR-4 ovarian
OVCAR-5 ovarian = test system: OVCAR-5 ovarian
OVCAR-8 ovarian = test system: OVCAR-8 ovarian
PC-3 prostate = test system: PC-3 prostate
RPMI-8226 leukemia = test system: RPMI-8226 leukemia
RXF 393 renal = test system: RXF 393 renal
SF-268 CNS = test system: SF-268 CNS
SF-295 CNS = test system: SF-295 CNS
SF-539 CNS = test system: SF-539 CNS
SK-MEL-2 melanoma = test system: SK-MEL-2 melanoma
SK-MEL-28 melanoma = test system: SK-MEL-28 melanoma
SK-MEL-5 melanoma = test system: SK-MEL-5 melanoma
SN12C renal = test system: SN12C renal
SNB-19 CNS = test system: SNB-19 CNS
SNB-75 CNS = test system: SNB-75 CNS
SR leukemia = test system: SR leukemia
SW-620 colon = test system: SW-620 colon
T-47D breast = test system: T-47D breast
TK-10 renal = test system: TK-10 renal
U251 CNS = test system: U251 CNS
UACC-257 melanoma = test system: UACC-257 melanoma
UACC-62 melanoma = test system: UACC-62 melanoma
UO-31 renal = test system: UO-31 renal

Measured: TGI

CC(=O)Nc1ccccc1C=C1c2ccccc2-c2ccccc21
42.9 µM: HOP-62 NSCLC
66.8 µM: NCI-H226 lung
66.7 µM: NCI/ADR-RES ovarian
26.5 µM: SF-539 CNS
58.2 µM: MDA-MB-231 breast
60.4 µM: U251 CNS
47.4 µM: OVCAR-8 ovarian
45.8 µM: SNB-19 CNS
53.6 µM: SN12C renal
38.5 µM: UO-31 renal
46.2 µM: SF-295 CNS
33.7 µM: SNB-75 CNS
42.3 µM: RXF 393 renal
98.3 µM: BT-549 breast
73 µM: OVCAR-3 ovarian
50.3 µM: MCF7 breast
45.2 µM: 786-0 renal
> 100 µM: all other assays above
